Experimental data: ChEMBL document CHEMBL1201862, “PubChem BioAssay data set” (2004)
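Results reflect a 48-hour exposure of cells in 96-well plates to compound at five concentrations. Here, GI50 denotes the concentration required for 50% inhibition of growth.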 Active and inactive are the calls of the source. Cut-off read from the data, not from the text of the source: active = GI50 up to about 1.1 µM and inactive = higher.

Assays:
Assay in all cases: NCI tumour cell line growth inhibition, 48 h
786-0 = system: 786-0
BT-549 = system: BT-549
EKVX = system: EKVX
HCT-116 = system: HCT-116
Hs-578T = system: Hs-578T
NCI-H226 = system: NCI-H226
NCI-H522 = system: NCI-H522
OVCAR-3 = system: OVCAR-3
OVCAR-8 = system: OVCAR-8
RPMI-8226 = system: RPMI-8226
SK-OV-3 = system: SK-OV-3
SN12C = system: SN12C
SNB-19 = system: SNB-19
SW-620 = system: SW-620
UACC-62 = system: UACC-62
HOP-92 = system: HOP-92
NCI/ADR-RES = system: NCI/ADR-RES

Row | Compound | GI50 (786-0) | GI50 (BT-549) | GI50 (EKVX) | GI50 (HCT-116) | GI50 (Hs-578T) | GI50 (NCI-H226) | GI50 (NCI-H522) | GI50 (OVCAR-3) | GI50 (OVCAR-8) | GI50 (RPMI-8226) | GI50 (SK-OV-3) | GI50 (SN12C) | GI50 (SNB-19) | GI50 (SW-620) | GI50 (UACC-62) | GI50 (HOP-92) | GI50 (NCI/ADR-RES)
1 | C[N+](C)([O-])CCCNc1ccnc2cccc([N+](=O)[O-])c12 | > 100 µM (inactive) | 41.9 µM (inactive) | > 100 µM (inactive) | 28.4 µM (inactive) | 21.1 µM (inactive) | 47.1 µM (inactive) | 14.2 µM (inactive) | 20.7 µM (inactive) | 81.3 µM (inactive) | 21.5 µM (inactive) | 80.7 µM (inactive) | 47.1 µM (inactive) | > 100 µM (inactive) | 31.1 µM (inactive) | 31.3 µM (inactive) | – | –
2 | COc1c(C)c(C/C=C(\C)CC/C=C(\C)CC/C=C(\C)CCC=C(C)C)c(OC)c2ccccc12 | > 100 µM (inactive) | > 100 µM (inactive) | > 100 µM (inactive) | > 100 µM (inactive) | > 100 µM (inactive) | – | > 100 µM (inactive) | > 100 µM (inactive) | > 100 µM (inactive) | – | > 100 µM (inactive) | > 100 µM (inactive) | > 100 µM (inactive) | > 100 µM (inactive) | > 100 µM (inactive) | > 100 µM (inactive) | > 100 µM (inactive)
3 | C=CCOC(C)(C)C1=CCC(C)CC1 (stereo unspecified) | > 100 µM (inactive) | > 100 µM (inactive) | > 100 µM (inactive) | > 100 µM (inactive) | > 100 µM (inactive) | – | > 100 µM (inactive) | > 100 µM (inactive) | > 100 µM (inactive) | > 100 µM (inactive) | > 100 µM (inactive) | > 100 µM (inactive) | > 100 µM (inactive) | > 100 µM (inactive) | > 100 µM (inactive) | > 100 µM (inactive) | –
4 | Cc1ccc(-c2c(C#N)c(S)n(NS(=O)(=O)c3ccccc3)c(=O)c2C#N)cc1 | 29.6 µM (inactive) | 28.2 µM (inactive) | 31 µM (inactive) | 26.9 µM (inactive) | – | 17.9 µM (inactive) | 19.5 µM (inactive) | 49 µM (inactive) | 21.2 µM (inactive) | 23.3 µM (inactive) | 66.5 µM (inactive) | 27.9 µM (inactive) | 31.5 µM (inactive) | 29 µM (inactive) | 23.9 µM (inactive) | 24.1 µM (inactive) | 13.2 µM (inactive)
5 | CC1=CC(=O)CC(C)(C)C1/C=C/C(C)=C/C=C/C(C)=C/C=C/C=C(C)/C=C/C=C(C)/C=C/C1=C(C)CC(O)CC1(C)C (stereo unspecified) | 22 µM (inactive) | – | 57.3 µM (inactive) | 18.4 µM (inactive) | 38.9 µM (inactive) | > 100 µM (inactive) | 23.2 µM (inactive) | 25.2 µM (inactive) | 32.2 µM (inactive) | 9.31 µM (inactive) | > 100 µM (inactive) | – | – | 15.7 µM (inactive) | – | 27.3 µM (inactive) | 51.5 µM (inactive)
6 | CCCN1C(=O)CN(S(=O)(=O)c2ccc(Cl)cc2)C1=O | > 100 µM (inactive) | > 100 µM (inactive) | > 100 µM (inactive) | > 100 µM (inactive) | > 100 µM (inactive) | > 100 µM (inactive) | > 100 µM (inactive) | > 100 µM (inactive) | – | > 100 µM (inactive) | > 100 µM (inactive) | > 100 µM (inactive) | > 100 µM (inactive) | > 100 µM (inactive) | > 100 µM (inactive) | > 100 µM (inactive) | –
7 | CC(C)(Cl)C(Br)CCC(Br)(CCl)C(Cl)CBr (stereo unspecified) | > 10 µM (inactive) | – | > 10 µM (inactive) | – | > 10 µM (inactive) | > 10 µM (inactive) | > 10 µM (inactive) | > 10 µM (inactive) | > 10 µM (inactive) | > 10 µM (inactive) | > 10 µM (inactive) | > 10 µM (inactive) | > 10 µM (inactive) | > 10 µM (inactive) | – | > 10 µM (inactive) | > 10 µM (inactive)
8 | CNNC1=NS(=O)(=O)c2cc(C#N)c(Cl)cc2S1 | > 10 µM (inactive) | > 10 µM (inactive) | > 10 µM (inactive) | > 10 µM (inactive) | > 10 µM (inactive) | > 10 µM (inactive) | > 10 µM (inactive) | > 10 µM (inactive) | > 10 µM (inactive) | > 10 µM (inactive) | > 10 µM (inactive) | > 10 µM (inactive) | > 10 µM (inactive) | > 10 µM (inactive) | > 10 µM (inactive) | – | > 10 µM (inactive)
9 | Cc1c2oc(=O)c(C#N)cc2c2ccccn12 | > 100 µM (inactive) | 25.8 µM (inactive) | > 100 µM (inactive) | 37.6 µM (inactive) | > 100 µM (inactive) | > 100 µM (inactive) | – | 17.3 µM (inactive) | > 100 µM (inactive) | > 100 µM (inactive) | > 100 µM (inactive) | – | > 100 µM (inactive) | > 100 µM (inactive) | > 100 µM (inactive) | > 100 µM (inactive) | > 100 µM (inactive)
10 | COC(=O)C1C(OC(=O)C(Cl)(c2ccccc2)c2ccccc2)CC2CCC1N2C (stereo unspecified) | > 100 µM (inactive) | > 100 µM (inactive) | > 100 µM (inactive) | > 100 µM (inactive) | – | > 100 µM (inactive) | > 100 µM (inactive) | > 100 µM (inactive) | > 100 µM (inactive) | > 100 µM (inactive) | > 100 µM (inactive) | > 100 µM (inactive) | > 100 µM (inactive) | > 100 µM (inactive) | > 100 µM (inactive) | – | > 100 µM (inactive)
11 | NC(=O)C(=CN1CC(=O)NC1=S)C(N)=O | > 100 µM (inactive) | > 100 µM (inactive) | > 100 µM (inactive) | > 100 µM (inactive) | – | > 100 µM (inactive) | – | > 100 µM (inactive) | > 100 µM (inactive) | – | > 100 µM (inactive) | > 100 µM (inactive) | > 100 µM (inactive) | > 100 µM (inactive) | > 100 µM (inactive) | > 100 µM (inactive) | > 100 µM (inactive)
12 | C=CCOC(=O)NC1C(OC(C)[C@@H](NC(=O)OCc2ccccc2)C(=O)OC(C)(C)C)OC(COC(C)=O)C(OC(C)=O)C1OC(C)=O (stereo partly specified) | > 100 µM (inactive) | – | > 100 µM (inactive) | > 100 µM (inactive) | 72.4 µM (inactive) | > 100 µM (inactive) | 63.8 µM (inactive) | > 100 µM (inactive) | 65 µM (inactive) | 62.4 µM (inactive) | > 100 µM (inactive) | 43.4 µM (inactive) | > 100 µM (inactive) | > 100 µM (inactive) | > 100 µM (inactive) | > 100 µM (inactive) | 50.6 µM (inactive)
13 | COC(=O)C(=O)C(C(=O)C(=O)Nc1ccccc1C(N)=O)c1nc2ccc(Cl)cc2nc1O (stereo unspecified) | > 100 µM (inactive) | > 100 µM (inactive) | – | > 100 µM (inactive) | 46.5 µM (inactive) | > 100 µM (inactive) | – | > 100 µM (inactive) | > 100 µM (inactive) | > 100 µM (inactive) | > 100 µM (inactive) | > 100 µM (inactive) | > 100 µM (inactive) | > 100 µM (inactive) | > 100 µM (inactive) | > 100 µM (inactive) | > 100 µM (inactive)
14 | CCCCCCCCCCCCCCCCP(=O)(O)OCC(N)C(=O)O (stereo unspecified) | 42 µM (inactive) | – | > 100 µM (inactive) | 19.6 µM (inactive) | 54 µM (inactive) | 25.5 µM (inactive) | 12.1 µM (inactive) | 23.6 µM (inactive) | > 100 µM (inactive) | 21 µM (inactive) | 56.1 µM (inactive) | 41.5 µM (inactive) | 16.9 µM (inactive) | 28.7 µM (inactive) | 44.5 µM (inactive) | 23.7 µM (inactive) | > 100 µM (inactive)
15 | CC1=C[C@H](C[C@]2(C)c3c(c4c(C)cccc4oc3=O)O[C@@H]2C)OC1=O | 22.8 µM (inactive) | 23.4 µM (inactive) | > 100 µM (inactive) | 15.7 µM (inactive) | 63.1 µM (inactive) | > 100 µM (inactive) | 22.6 µM (inactive) | 37 µM (inactive) | 68.1 µM (inactive) | 0.0778 µM (active) | > 100 µM (inactive) | 54.8 µM (inactive) | > 100 µM (inactive) | 21.7 µM (inactive) | 73.1 µM (inactive) | – | 20.1 µM (inactive)
16 | CCOC(=O)CCCn1cc(C(=O)OC)nn1 | > 100 µM (inactive) | > 100 µM (inactive) | > 100 µM (inactive) | > 100 µM (inactive) | > 100 µM (inactive) | > 100 µM (inactive) | – | – | > 100 µM (inactive) | – | – | > 100 µM (inactive) | > 100 µM (inactive) | > 100 µM (inactive) | > 100 µM (inactive) | > 100 µM (inactive) | > 100 µM (inactive)
17 | C/C(=C1/N=C(c2ccccc2)OC1=O)c1cccs1 | 76 µM (inactive) | > 100 µM (inactive) | > 100 µM (inactive) | > 100 µM (inactive) | 73.5 µM (inactive) | > 100 µM (inactive) | 59.8 µM (inactive) | > 100 µM (inactive) | 68.9 µM (inactive) | > 100 µM (inactive) | > 100 µM (inactive) | > 100 µM (inactive) | > 100 µM (inactive) | > 100 µM (inactive) | > 100 µM (inactive) | > 100 µM (inactive) | –
18 | C(/c1ccco1)=c1/nc(-c2ccccc2)n2c1nc1ccccc12 | 11 µM (inactive) | 15.8 µM (inactive) | 0.0107 µM (active) | 15.5 µM (inactive) | 49.1 µM (inactive) | 9.48 µM (inactive) | – | 9.06 µM (inactive) | 45.1 µM (inactive) | 11.2 µM (inactive) | 22.4 µM (inactive) | 37.4 µM (inactive) | > 100 µM (inactive) | 21.7 µM (inactive) | 63.1 µM (inactive) | 38.1 µM (inactive) | 23.4 µM (inactive)
